# “And” between values parts separate entries of the source, which are not always exact repeats. Equal values may be shown once.
# What was measured:
# Botrytis cinerea [1] = test: Activity against Botrytis cinerea on bell peppers, green fruit disks (Use Example 2); format: in vivo
# Botrytis cinerea [2] = test: Activity against Botrytis cinerea on bell pepper leaves (Use Example 1); settings: in vivo
Compound,Efficacy in % of the untreated control (Botrytis cinerea [1]; in vivo) [%],Efficacy in % of the untreated control (Botrytis cinerea [2]),other results
O=C(Nc1ccccc1-c1ccc(F)cc1)c1cccnc1Cl [Compound I.1],0,,
O=C(Nc1ccccc1-c1ccc(Cl)cc1)c1cccnc1Cl [Compound I.2],,67% and 44%,
"N#Cc1c[nH]cc1-c1cccc2c1OC(F)(F)O2 [Compound IV, fludioxinil]",0,,
"CN(C)S(=O)(=O)N(SC(F)(Cl)Cl)c1ccccc1 [Compound IXa, dichlofluanid]",,0%,
"O=C1c2ccccc2C(=O)N1SC(Cl)(Cl)Cl [Compound VII, folpet]",0,0%,
"O=[N+]([O-])c1cc(C(F)(F)F)c(Cl)c([N+](=O)[O-])c1Nc1ncc(C(F)(F)F)cc1Cl [Compound VIII, fluazinam]",,,"Efficacy in % of the untreated control (Botrytis cinerea [1]; 16 ppm active ingredient in the spray liquor, green bell pepper fruit disks, 4 days at 18° C.): 0%; Efficacy in % of the untreated control (Botrytis cinerea [1]; 31 ppm active ingredient in the spray liquor, green bell pepper fruit disks, 4 days at 18° C.): 0%"
